Measurements: ChEMBL document CHEMBL3102727, “Conformationally constrained ortho-anilino diaryl ureas: discovery of 1-(2-(1'-neopentylspiro[indoline-3,4'-piperidine]-1-yl)phenyl)-3-(4-(trifluoromethoxy)phenyl)urea, a potent, selective, and bioavailable P2Y1 antagonist” (J Med Chem, 2013)
Converted amounts (≈) assume the structure as drawn. The source made the active and inactive calls. The rule behind the calls is not given here.

Experiments:
P2Y purinoceptor 1 [1] = target: T1, P2Y purinoceptor 1 (Homo sapiens, UniProt P47900); test: Displacement of [33P]-2MeS-ADP from human P2Y1 receptor expressed in HEK293 cells after 1 hr by scintillation counting analysis; assay type: cell-based
T1 sequence (P47900 whole entry): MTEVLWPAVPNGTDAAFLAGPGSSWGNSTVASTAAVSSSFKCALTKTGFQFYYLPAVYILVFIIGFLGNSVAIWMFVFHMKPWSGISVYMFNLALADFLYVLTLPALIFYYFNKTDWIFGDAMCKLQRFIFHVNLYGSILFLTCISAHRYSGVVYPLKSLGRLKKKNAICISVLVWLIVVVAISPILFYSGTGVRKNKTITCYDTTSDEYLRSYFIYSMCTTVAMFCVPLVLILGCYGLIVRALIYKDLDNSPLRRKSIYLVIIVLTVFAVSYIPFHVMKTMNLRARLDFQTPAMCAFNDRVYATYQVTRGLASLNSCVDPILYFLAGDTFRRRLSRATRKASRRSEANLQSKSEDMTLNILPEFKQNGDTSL

P2Y purinoceptor 1 [2] = target: T1, P2Y purinoceptor 1; test: Antagonist activity at P2Y1 receptor in washed human platelets assessed as 1 uM 2-methylthio-ADP-induced calcium flux by FLIPR assay; assay type: functional
[3] = Aqueous solubility of the amorphous form of compound in phosphate buffer at pH 6.5; assay type: physicochemical
[4] = Aqueous solubility of the of partial crystalline form of compound in phosphate buffer at pH 6.5; assay type: physicochemical
[5] = Partition coefficient, log P of the compound at pH 7 by reversed-phase HPLC method; assay type: physicochemical; conditions: octanol/water
[6] = Metabolic stability in mouse liver microsomes assessed as compound remaining after 10 mins; assay type: ADME, Microsome; conditions: read-out: Stability
[7] = Metabolic stability in human liver microsomes assessed as compound remaining after 10 mins; assay type: ADME; conditions: read-out: Stability
[8] = Metabolic stability in rat liver microsomes assessed as compound remaining after 10 mins; assay type: ADME; conditions: read-out: Stability
P2Y purinoceptor 1 [9] = target: T1, P2Y purinoceptor 1; test: Antagonist activity at P2Y1 receptor in platelet-enriched human plasma assessed as 2.5 uM ADP-induced platelet aggregation preincubated for 1 min followed by ADP induction measured at 5 mins by aggregometric analysis
[10] = Aqueous solubility of the crystalline form of compound in phosphate buffer at pH 6.5; assay type: physicochemical

Row | SMILES | Ki (P2Y purinoceptor 1 [1]) | solubility [3] | logP [5] | further results
1 | O=C(Nc1ccc(OC(F)(F)F)cc1)Nc1ccccc1N1CC2(CCN(CCO)CC2)c2ccccc21 | 4500 nM |  | 4.6 | solubility [4]: 123 µg/mL (≈ 234 µM)
2 | O=C(O)CN1CCC2(CC1)CN(c1ccccc1NC(=O)Nc1ccc(OC(F)(F)F)cc1)c1ccccc12 | 13500 nM | 5 µg/mL (≈ 9.25 µM) | 4.4 | 
3 | CC(C)CN1CCC2(CC1)CN(c1ccccc1NC(=O)Nc1ccc(OC(F)(F)F)cc1)c1ccccc12 | 20.7 nM |  | 5.5 | solubility [4]: 7 µg/mL (≈ 13 µM); remaining at 10 min [7]: 79%; remaining at 10 min [8]: 84%
4 | COCCN1CCC2(CC1)CN(c1ccccc1NC(=O)Nc1ccc(OC(F)(F)F)cc1)c1ccccc12 | 390 nM | 66 µg/mL (≈ 122 µM) | 5.1 | 
5 | CC(C)(C)CN1CCC2(CC1)CN(c1ccccc1NC(=O)Nc1ccc(OC(F)(F)F)cc1)c1ccncc12 | 617 nM | 428 µg/mL (≈ 773 µM) | 5.1 | IC50 (P2Y purinoceptor 1 [2]): 346 nM
6 | O=C(Nc1ccc(OC(F)(F)F)cc1)Nc1ccccc1N1CCCCc2ccccc21 | 830 nM |  |  | 
7 | CN1CCN(c2ccccc2NC(=O)Nc2ccc(OC(F)(F)F)cc2)c2ccccc21 | 94 nM |  | 5.5 | 
8 | O=C(Nc1ccc(OC(F)(F)F)cc1)Nc1ccccc1N1CCOc2ccccc21 | 65 nM |  | 5.7 | 
9 | O=C(Nc1ccc(OC(F)(F)F)cc1)Nc1ccccc1-c1cc2ccccc2[nH]1 |  |  |  | IC50 (P2Y purinoceptor 1 [1]): 75 nM; Activity (P2Y purinoceptor 1 [9]): inactive
10 | CC(C)NC(=O)N1CCC2(CC1)CN(c1ccccc1NC(=O)Nc1ccc(OC(F)(F)F)cc1)c1ccccc12 | 200 nM |  | 5.7 | solubility [4]: 1 µg/mL (≈ 1.76 µM)
11 | CN1CCC2(CC1)CN(c1ccccc1NC(=O)Nc1ccc(OC(F)(F)F)cc1)c1ccccc12 | 690 nM | 100 µg/mL (≈ 201 µM) | 4.6 | 
12 | CC(C)N1CCC2(CC1)CN(c1ccccc1NC(=O)Nc1ccc(OC(F)(F)F)cc1)c1ccccc12 |  |  | 4.5 | solubility [4]: 71 µg/mL (≈ 135 µM)
13 | CC(C)(C)CN1CCC2(CC1)CN(c1ccccc1NC(=O)Nc1ccc(OC(F)(F)F)cc1)c1ncccc12 | 253 nM |  |  | IC50 (P2Y purinoceptor 1 [2]): 503 nM
14 | O=C(Nc1ccc(OC(F)(F)F)cc1)Nc1ccccc1N1CC2(CCNCC2)c2ccccc21 | 4500 nM |  | 4.3 | solubility [4]: 84 µg/mL (≈ 174 µM)
15 | O=C(Nc1ccc(OC(F)(F)F)cc1)Nc1cccnc1-c1cc2ccccc2[nH]1 |  |  |  | IC50 (P2Y purinoceptor 1 [1]): 227 nM; Activity (P2Y purinoceptor 1 [9]): inactive

The remaining compounds from weak to strong by Ki (P2Y purinoceptor 1 [1]), led by results:

Row | Ki (P2Y purinoceptor 1 [1]) | solubility [3] | logP [5] | SMILES | further results
16 | 39 nM |  |  | CC1(C)CN(c2ccccc2NC(=O)Nc2ccc(OC(F)(F)F)cc2)c2ccccc2O1 | 
17 | 36.6 nM |  |  | O=C(Nc1ccc(OC(F)(F)F)cc1)Nc1ccccc1N1CC2(CCN(C(=O)OCc3ccccc3)CC2)c2ccccc21 | IC50 (P2Y purinoceptor 1 [2]): 5.9 nM
18 | 36.5 nM |  |  | O=C(Nc1ccc(OC(F)(F)F)cc1)Nc1ccccc1N1CCCc2ccccc21 | 
19 | 29.5 nM |  |  | CC1CCN(c2ccccc2NC(=O)Nc2ccc(OC(F)(F)F)cc2)c2ccccc21 (stereo unspecified) | 
20 | 28.7 nM | 5 µg/mL (≈ 9.03 µM) | > 6.2 | CC(C)(C)CN1CCC2(CC1)CN(c1ccccc1NC(=O)Nc1ccc(OC(F)(F)F)cc1)c1cccnc12 | 
21 | 26 nM |  |  | O=C(Nc1ccc(OC(F)(F)F)cc1)Nc1ccccc1N1CC2(CC2)c2ccccc21 | 
22 | 20.3 nM |  |  | CC1(C)CN(c2ncccc2NC(=O)Nc2ccc(OC(F)(F)F)cc2)c2ccccc21 | 
23 | 18.6 nM |  | > 6.3 | O=C(Nc1ccc(OC(F)(F)F)cc1)Nc1ccccc1N1CC2(CCN(Cc3ccccc3)CC2)c2ccccc21 | solubility [4]: < 1 µg/mL
24 | 16 nM |  |  | CC1(C)CCN(c2ncccc2NC(=O)Nc2ccc(OC(F)(F)F)cc2)c2ccccc21 | 
25 | 13.3 nM |  | 6 | COC(=O)N1CCC2(CC1)CN(c1ccccc1NC(=O)Nc1ccc(OC(F)(F)F)cc1)c1ccccc12 | solubility [10]: 1 µg/mL (≈ 1.85 µM)
26 | 12.8 nM | < 1 µg/mL | > 6.2 | CC(C)(C)CN1CCCC2(C1)CN(c1ccccc1NC(=O)Nc1ccc(OC(F)(F)F)cc1)c1ccccc12 (stereo unspecified) | 
27 | 11.5 nM | 25 µg/mL (≈ 45.2 µM) | > 6 | CC(C)(C)CN1CCC2(CC1)CN(c1ccccc1NC(=O)Nc1ccc(OC(F)(F)F)cc1)c1cnccc12 | IC50 (P2Y purinoceptor 1 [2]): 10.7 nM; remaining at 10 min [7]: 67%; remaining at 10 min [8]: 73%
28 | 7.6 nM |  |  | O=C(Nc1ccc(OC(F)(F)F)cc1)Nc1ccccc1N1CC2(CCC2)c2ccccc21 | IC50 (P2Y purinoceptor 1 [2]): 10.5 nM
29 | 7.3 nM |  | > 6.2 | CC1(C)CCN(c2ccccc2NC(=O)Nc2ccc(OC(F)(F)F)cc2)c2ccccc21 | remaining at 10 min [6]: 63%; remaining at 10 min [7]: 51%; remaining at 10 min [8]: 6%
30 | 6.6 nM |  |  | O=C(Nc1ccc(OC(F)(F)F)cc1)Nc1ccccc1N1CC2(CCCC2)c2ccccc21 | 
31 | 5.9 nM | < 1 µg/mL |  | O=C(Nc1ccc(OC(F)(F)F)cc1)Nc1ccccc1N1CC2(CCCCC2)c2ccccc21 | IC50 (P2Y purinoceptor 1 [2]): 2.2 nM
32 | 5.8 nM | 1 µg/mL (≈ 1.86 µM) | > 6.2 | CC(C)(C)CN1CCC2(C1)CN(c1ccccc1NC(=O)Nc1ccc(OC(F)(F)F)cc1)c1ccccc12 (stereo unspecified) | 
33 | 4.6 nM | 16 µg/mL (≈ 28.2 µM) | > 6.2 | CC(C)(C)CN1CCC2(CC1)CCN(c1ccccc1NC(=O)Nc1ccc(OC(F)(F)F)cc1)c1ccccc12 | IC50 (P2Y purinoceptor 1 [2]): 9.9 nM; remaining at 10 min [7]: 90%; remaining at 10 min [8]: 87%
